From patent US11959083B2, “Immunosuppression-reverting oligonucleotides inhibiting the expression of CD39” (Secarna Pharmaceuticals GmbH & Co. KG, priority 2016, dated 2024)
pIC50: −log10 of the molar value. l = locked nucleic acid (LNA); d = 2'-deoxy (DNA)

How the values were obtained:
Type in all cases: cell-based, human
hCD39 mRNA [1] = test: hCD39 mRNA knockdown efficacy screen in A-172 cells (single dose, gymnotic delivery, QuantiGene Singleplex); settings: 10 μM, 3 days, normalized to HPRT1
In short: (§1)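 Antisense oligonucleotides given once at 10 μM without transfection reagent (gymnotic) to HDLM-2 or A-172 cells for 3 days. hCD39 mRNA measured by QuantiGene Singleplex, normalized to HPRT1 and expressed relative to untreated cells; triplicate means.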

hCD39 mRNA [2] = test: hCD39 mRNA knockdown efficacy screen in HDLM-2 cells (single dose, gymnotic delivery, QuantiGene Singleplex); design: key to Relative hCD39 mRNA expression (compared to non-treated cells): *: values are below detection limit; settings: 10 μM, 3 days
In short: as §1

hCD39 mRNA [3] = test: IC50 determination / concentration-dependent hCD39 mRNA knockdown in HDLM-2 cells; settings: for mRNA inhibition: HDLM-2, 3 days, Table 8
In short: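 Antisense oligonucleotides applied to HDLM-2 cells for 3 days, titrated 10 μM down to 4.5 nM. hCD39 mRNA normalized to HPRT1 and expressed as residual level relative to untreated cells (100); mean of triplicates, IC50 from concentration-response.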

hCD39 protein = test: Concentration- and time-dependent hCD39 protein knockdown in HDLM-2 cells (flow cytometry); settings: for Inhibition [%] (Protein/mRNA): HDLM-2, CD39 protein
Method: FIG. 8 depicts concentration- and time-dependent CD39 protein knockdown by A04040H (SEQ ID No. 3) and A04045H (SEQ ID No. 4). Analysis of CD39 protein expression by flow cytometry in HDML-2 cells is given after treatment with the indicated antisense oligonucleotides for 3, 4 and 6 days. As treatment control, cells were treated with neg1 for 3, 4 and 6 days at the indicated concentrations. Relative expression compared to untreated control cells (=1) is depicted.
(§2) HDLM-2 cells were therefore treated with different concentrations of the respective antisense oligonucleotide for three, four and six days, respectively. Protein expression was analyzed by flow cytometry using the CD39 antibody (clone A1) and 7-AAD to investigate viability. […] Table 13summarizes protein knockdown efficiency of the selected human CD39 antisense oligonucleotides A04040H (SEQ ID No. 3) and A04045H (SEQ ID No. 4) in HDLM-2 cells at different time points: […]

HDLM-2 cells = test: Viability of HDLM-2 cells (7-AAD, flow cytometry); settings: three, four and six days, different concentrations
Method: as §2

+C*+A*+C*T*T*A*C*G*T*T*C*A*C*T*+A*+C*+C (antisense CACTTACGTTCACTACC; sugars from the 5' end l3 d11 l3, all phosphorothioate, methylation of C not given here) [A04045H]
Mean hCD39 mRNA expression (relative to untreated cells set as 1) (hCD39 mRNA [1]; first screening round): 0.16 | Relative hCD39 mRNA expression (compared to non-treated cells) (hCD39 mRNA [1]; second screening round): 0.08 | Mean hCD39 mRNA expression normalized to HPRT1 relative to untreated control = 1 (hCD39 mRNA [2]; first screening round): 0.09 | Relative hCD39 mRNA expression (compared to non-treated cells) (hCD39 mRNA [2]; second screening round, normalized to HPRT1): * | mRNA inhibition (hCD39 mRNA [3]; 0.0045 μM): 30.70% | mRNA inhibition (hCD39 mRNA [3]; 0.013 μM): 33.03% | mRNA inhibition (hCD39 mRNA [3]; 0.04 μM): 54.20% | mRNA inhibition (hCD39 mRNA [3]; 0.12 μM): 73.62% | mRNA inhibition (hCD39 mRNA [3]; 0.4 μM): 87.63% | mRNA inhibition (hCD39 mRNA [3]; 1.1 μM): 95.07% | mRNA inhibition (hCD39 mRNA [3]; 3.3 μM): 97.44% | mRNA inhibition (hCD39 mRNA [3]; 10 μM): 99.19% | maximal target inhibition (hCD39 mRNA) (hCD39 mRNA [3]; HDLM-2 cells, compared to untreated cells, first IC50 determination): 99.2% | pIC50 (hCD39 mRNA [3]; HDLM-2 cells, hCD39 mRNA, 3 days, first screening round (Table 8)): 7.18 | Inhibition [%] (Protein/mRNA) (hCD39 protein; Day 3, 0.1 μM): 38.81% | Inhibition [%] (Protein/mRNA) (hCD39 protein; Day 3, 0.5 μM): 50.37% | Inhibition [%] (Protein/mRNA) (hCD39 protein; Day 3, 1 μM): 51.53% | Inhibition [%] (Protein/mRNA) (hCD39 protein; Day 3, 10 μM): 54.88% | Inhibition [%] (Protein/mRNA) (hCD39 protein; Day 4, 0.1 μM): 61.88% | Inhibition [%] (Protein/mRNA) (hCD39 protein; Day 4, 0.5 μM): 73.20% | Inhibition [%] (Protein/mRNA) (hCD39 protein; Day 4, 1 μM): 75.55% | Inhibition [%] (Protein/mRNA) (hCD39 protein; Day 4, 10 μM): 78.72% | Inhibition [%] (Protein/mRNA) (hCD39 protein; Day 6, 0.1 μM): 80.24% | Inhibition [%] (Protein/mRNA) (hCD39 protein; Day 6, 0.5 μM): 89.53% | Inhibition [%] (Protein/mRNA) (hCD39 protein; Day 6, 1 μM): 90.46% | Inhibition [%] (Protein/mRNA) (hCD39 protein; Day 6, 10 μM): 94.06% | inhibition of hCD39 protein (hCD39 protein; HDLM-2 cells, three, four and six days, different concentrations): potent inhibition of hCD39 protein after all indicated time points | viability of HDLM-2 cells (HDLM-2 cells): did not affect viability
